Measured values from patent US20250346629A1, “USE OF D-ENANTIOMERIC PEPTIDE LIGANDS OF MONOMERIC ALPHA-SYNUCLEIN FOR THE THERAPY OF VARIOUS SYNUCLEINOPATHIES” (PRIAVOID GMBH, priority 2021, published 2025).
Square brackets hold non-standard residues; d marks the D form. Peptide text beside a SMILES is read from it.

What was measured:
[1] = target: WT α-syn (Homo sapiens, UniProt P37840); experiment: Single cycle SPR experiment of WT α-syn on CM5-immobilized peptides (FIG. 8); settings: 1:1 binding model fit, CM5 chip, PBS pH 7.4, 0.005% Tween-20
Description: Each peptide was immobilized on a CM5 sensor chip surface. WT α-syn was injected in a concentration range of 30-500 nM in PBS, PH 7.4, 0.005% (v/v) Tween-20. Regeneration was carried out after every cycle with 2 M Gua-HCl for 2×30 sec. The KDs were determined with a 1:1 binding model fit, as follows: SVD-1a: 15.7 nM; SVD-6a: 14.0 nM; SVD-10a: 12.3 nM.

[2] = target: 15N-labeled α-syn (Homo sapiens, UniProt P37840); experiment: NMR analysis (HSQC, PRE) of 15N-labeled α-syn with SVD-1a (FIG. 12); assay type: binding; settings: 25 μM α-syn : SVD-1a 1:1, PBS pH 7.4, 10° C.
Description: Analogs of SVD-1a spin-labeled with nitroxyl radicals were produced by reacting (1-oxyl-2,2,5,5-tetramethyl-Δ3-pyrroline-3-methyl) methanethiosulfonate (MTSL) (Toronto Research Chemicals, USA) with SVD-1a_Cys, leading to covalent bonding of the nitroxyl radical spin label MTSL to the C-terminal D-cysteine residue. A fivefold molar excess of MTSL relative to the peptide, i.e. ˜4 mg MTSL (˜15 μmol) was dissolved in 90 μl N,N-dimethylformamide (DMF) and mixed with 810 μl 200 mM HEPES/NaOH buffer, pH 7.6. The solution was then added to ˜5 mg (˜3 μmol) of lyophilized SVD-1a_Cys. […]
The samples were produced at final concentrations of 25 μM full-length ^15N-labeled acetyl-α-syn in the absence (reference) and in the presence of an equimolar amount of SVD-1a (not isotope-labeled, therefore invisible to NMR) in PBS buffer, pH 7.4, with addition of 5% D2O as internal reference. 2D-^1H-^15N-HSQC spectra were recorded back-to-back with a Bruker AVANCE NEO spectrometer (Bruker, USA) at 1200 MHz proton Larmor frequency. […]
The NMR datasets were processed using the Bruker TopSpin software (Version 4.1.1) and visualized using CcpNmr Analysis (v2.4.2) (50). […] From the residue-specific changes in chemical shift in the ^1H and ^15N dimensions, an absolute change in chemical shift was calculated according to the following formula: […]

- Kd [1]: 15.7 nM
Structure (SMILES): CC[C@@H](C)[C@@H](NC(=O)[C@@H](Cc1c[nH]cn1)NC(=O)[C@@H](CCC(=O)O)NC(=O)[C@@H](CCC(N)=O)NC(=O)[C@@H](Cc1c[nH]c2ccccc12)NC(=O)[C@@H](Cc1ccc(O)cc1)NC(=O)[C@H](NC(=O)[C@@H](CCC(=O)O)NC(=O)[C@@H](Cc1c[nH]cn1)NC(=O)[C@H](NC(=O)[C@H]1CCCN1C(=O)[C@@H](CC(C)C)NC(=O)[C@H](N)CCCNC(=N)N)[C@H](C)O)[C@H](C)O)C(=O)N[C@H](Cc1c[nH]c2ccccc12)C(=O)N[C@H](Cc1c[nH]cn1)C(=O)N[C@H](C)C(=O)N[C@H](CCCNC(=N)N)C(=O)N[C@H](CCCNC(=N)N)C(=O)N[C@H](CCCNC(=N)N)C(=O)N[C@H](CCCNC(=N)N)C(=O)N[C@H](CCCNC(=N)N)C(N)=O [SVD-1a, rlpthetywqehiwharrrrr] (H-[dR][dL][dP][dT][dH][dE][dT][dY][dW][dQ][dE][dH][dI][dW][dH][dA][dR][dR][dR][dR][dR]-NH2)
- binding region on α-syn (PRE intensity ratios) [2]: somewhat more pronounced (transient) bonding interaction of SVD-1a with residues in the C-terminal region of α-syn
